Assay results reported in patent US12084437B2, “Halo-substituted piperidines as orexin receptor modulators” (AstraZeneca AB, priority 2016, dated 2024).

Test: Metabolic stability and intrinsic clearance in rat hepatocytes
Assay type: in vitro ADME
Conditions: cryopreserved rat hepatocytes (suspension), 1 uM compound, 37 C, read-out: rHeps CLint
Procedure: Stock solutions of compounds and control compounds were prepared in 10 mM in appropriate solvent, such as DMSO. L-15 medium was placed in a 37° C. water bath and allowed to warm for at least 15 minutes prior to use. A quenching plate was prepared by adding 80 μL of acetonitrile to each well of a 96-well plate. In a new 96-well plate, the 10 mM stock solution of test compounds and control compounds were diluted to 100 μM by combining 198 μL of acetonitrile and 2 μL of the 10 mM stock. A vial of cryopreserved rat hepatocytes were removed from storage and maintained at cryogenic temperatures until thawing. The cells were thawed as quickly as possible, in a 37° C. water bath under gentle shaking. The vials were kept in the water bath until all ice crystals have dissolved and are no longer visible. After the thawing was completed, the vials were sprayed with 70% ethanol and transferred to a biosafety cabinet. […]
Cells were then counted with Cellometer® Vision. […] Counted cells were then diluted with incubation medium to a working cell density of 1.0×10^6 viable cells/mL. […]
All calculations were carried out using Microsoft Excel. Peak areas were determined from extracted ion chromatograms. in vitro half-life (t½) of parent compound was determined by regression analysis of the Ln percent parent disappearance vs. time curve.

Row | hepatocyte CLint at 1 µM [µL/min/1e6 cells] | Compound
1 | 107 | Cc1nc(C(=O)N2CC(F)(F)C[C@@H](C)[C@H]2CNc2ccc(C(F)(F)F)cn2)c(-c2ccc(F)cc2)s1 [Compound 185, ((2S,3R)-5,5-difluoro-3-methyl-2-(((5-(trifluoromethyl)pyridin-2-yl)amino)methyl)piperidin-1-yl)(5-(4-fluorophenyl)-2-methylthiazol-4-yl)methanone]
2 | 3.8 | C[C@@H]1CC(F)(F)CN(C(=O)c2nn(C)cc2-c2ccc(Cl)cc2)[C@@H]1CNc1cnc(C(F)(F)F)cn1 [Compound 129, (4-(4-chlorophenyl)-1-methyl-1H-pyrazol-3-yl)((2S,3R)-5,5-difluoro-3-methyl-2-(((5-(trifluoromethyl)pyrazin-2-yl)amino)methyl)piperidin-1-yl)methanone]
